# Results taken from patent US11319289B2, “5-hydroxy pyridine-based compound for use as P2X1 and P2X3 receptor antagonist and pharmaceutical composition comprising same” (GWANGJU INSTITUTE OF SCIENCE AND TECHNOLOGY, priority 2017, dated 2022).
# Key:
# [1] = Metabolic stability in microsomes, rat; format: in vitro ADME; conditions: for Metabolic stability, microsomes, Rat: 30 min
# Protocol: Metabolic stability of the compounds was evaluated in rat liver microsomes (RLM). Microsomes (0.5 mg/ml) and test compound (1 μM) in 100 mM potassium phosphate buffer (pH 7.4) were preincubated by shaking at 37° C. for 5 min (100 rpm). Metabolic reactions were initiated by adding an NADPH production system (60 mM potassium phosphate buffer at pH 7.4, 1.3 mM NADP, 3.3 mM glucose-6-phosphate, 0.3 μL glucose-6-phosphate dehydrogenase (0.4 U/mL), and 3.3 mM magnesium chloride) and incubating at 37° C. 100 μL aliquots were recovered at 0, 10, 20, 30 and 60 minutes, and the reaction was terminated by the addition of two volumes of ice-cold acetonitrile (ACN). After mixing by vortex and centrifugation (14000 rpm) for 15 minutes at 4° C., the supernatant was transferred to liquid chromatography vials and analyzed by an LC-MS/MS system.
# [2] = molecular target: T1, human P2X7 receptor (hP2X7) (Homo sapiens, UniProt Q99572); assay: Ethidium bromide accumulation assay in hP2X7-expressing HEK293 cells; format: cell-based; conditions: 10 μM compound with BzATP
# T1 construct: expressed in transfected cells
# T1 sequence (Q99572 1-595): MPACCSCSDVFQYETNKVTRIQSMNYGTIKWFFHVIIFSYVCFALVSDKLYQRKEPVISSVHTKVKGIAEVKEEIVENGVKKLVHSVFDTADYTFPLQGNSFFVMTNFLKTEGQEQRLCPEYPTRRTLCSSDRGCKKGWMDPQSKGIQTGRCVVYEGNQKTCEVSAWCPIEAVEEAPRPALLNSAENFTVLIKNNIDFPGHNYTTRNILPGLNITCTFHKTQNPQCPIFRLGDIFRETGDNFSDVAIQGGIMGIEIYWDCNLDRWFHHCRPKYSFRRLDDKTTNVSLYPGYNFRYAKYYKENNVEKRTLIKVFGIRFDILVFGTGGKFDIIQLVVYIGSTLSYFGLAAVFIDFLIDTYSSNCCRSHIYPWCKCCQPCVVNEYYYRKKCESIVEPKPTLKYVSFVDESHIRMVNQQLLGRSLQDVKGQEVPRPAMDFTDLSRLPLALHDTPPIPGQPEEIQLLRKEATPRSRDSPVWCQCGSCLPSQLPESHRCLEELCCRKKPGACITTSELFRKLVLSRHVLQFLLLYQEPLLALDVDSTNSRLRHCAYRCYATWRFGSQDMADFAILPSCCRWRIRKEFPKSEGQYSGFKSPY
# Protocol: 1-2. Ethidium Bromide Accumulation Assay in hP2X-Expressing HEK293 Cells
# HEK293 cells that are stably transfected with the human P2X7 receptor (P2X7R) were kept under a humidified atmosphere of 5% CO2 at 37° C. in DMEM supplemented with 10% (v/v) FBS, 2 mM L-glutamine and antibiotics (50 U/mL penicillin and 50 μg/ml streptomycin). BzATP-induced pore formation was measured using a fluorescence plate reader by measuring cellular absorption of ethidium in the hP2X7-expressing HEK293 cells. The hP2X7-expressing HEK293 cells were washed once with an appropriate assay buffer, and the buffer was also removed before subsequent analysis. All studies were performed at room temperature and the final assay volume was 100 μL. The cells were resuspended at 2.5×10^6 cells/mL in assay buffers consisting of 10 mM HEPES, 5 mM N-methyl-D-glucamine, 5.6 mM KCl, 10 mM D-glucose and 0.5 mM CaCl2 (pH 7.4) and supplemented with 280 mM sucrose or 140 mM NaCl.
# In order to determine the antagonistic activity of the 5-hydroxyl-pyridine derivatives of the present invention and the reference compound (AZD9056), these compounds were added to the cells at a concentration of 10 μM with BzATP without pre-incubation. The cells were incubated for 2 hours under a humidified atmosphere of 5% CO2 at 37° C., and the absorption of ethidium dye was observed by measuring fluorescence with a Bio-Tek instrument FL600 fluorescent plate reader (excitation wavelength of 530 nm and emission wavelength of 590 nm). The results are expressed as a percentage relative to the maximum cumulative amount of ethidium bromide when stimulated with BzATP alone.
# In order to investigate the structure-activity relationship (SAR) of the compounds synthesized in the present invention, the antagonistic activity was evaluated by a two-electrode voltage clamp (TEVC) assay in Xenopus oocytes expressing the recombinant mP2X1 or hP2X3, respectively. The hP2X7R antagonistic activity was assessed using an ethidium ion accumulation assay in human HEK293 cells stably expressing the recombinant human P2X7R.
smiles,measurement,setting,value
"CCCc1nc(Cc2cccc(Oc3ccccc3)c2)c(C)c(C(=O)OC)c1O [Compound 28, Methyl 3-hydroxy-5-methyl-6-(3-phenoxybenzyl)-2-propylisonicotinate]","Metabolic stability, microsomes, Rat",[1],33 % remaining after 30 min
"CCCc1nc(Cc2cccc(Oc3ccccc3)c2)c(C)c(C(=O)O)c1O [Compound 29, 3-Hydroxy-5-methyl-6-(3-phenoxybenzyl)-2-propylisonicotinic acid]",hP2X7 % inhibition of ethidium bromide accumulation,[2],Inactive
same,metabolic stability,"[1]; after 30 minutes, species not given",< 5%
same,"Metabolic stability, microsomes, Rat",[1],0 % remaining after 30 min
"CCCc1nc(CCc2ccc(OC)cc2)c(C(=O)O)c(C(=O)O)c1O [Compound 13d, 5-Hydroxy-2-(4-methoxyphenethyl)-6-propylpyridine-3,4-dicarboxylic acid]",hP2X7 % inhibition of ethidium bromide accumulation,[2],inactive
